Values quoted from earlier work, collected in patent US20090236541A1, “System and Methods for Optical Imaging” (General Electric Company, priority 2008, published 2009).

Tests used:
[1] = small molecule form
[2] = system: mitochondria and/or the endoplasmic reticulum; conditions: concentration-dependent manner
[3] = system: heart of a living laboratory rat; conditions: living laboratory rat after a thoracotomy

solubility in blood [1] | Structure (SMILES) | partitioning into mitochondria and/or endoplasmic reticulum [2] | imaging of blood flow in the heart [3]
somewhat less soluble in blood | CC1(C)C(/C=C/C=C/C=C/C=C2\N(CCCCS(=O)(=O)O)c3ccc4ccccc4c3C2(C)C)=[N+](CCCCS(=O)(=O)[O-])c2ccc3ccccc3c21 [Indocyanine green, indocyanine green] |  | 
 | CN1C(=CC=C2CCCC(C=CC3=[N+](C)c4ccccc4C3(C)C)=C2Cl)C(C)(C)c2ccccc21.[O-][Cl+3]([O-])([O-])[O-] [IR-786] | partitions efficiently into mitochondria and/or the endoplasmic reticulum | successfully applied
